This note sets out measurements from paper PMC7618036, “An oral heme oxygenase inhibitor targets immunosuppressive perivascular macrophages in preclinical models of cancer” (Science translational medicine, 2025).

The subject of assay [1] is MMTV-PyMT tumors. In words: Tumor growth in MMTV-PyMT mice bearing established spontaneous tumors. The class given is in vivo, mouse. The settings on record: single agent, i.p. 25 µMol/kg/day. On the procedure: Vertical dashed black lines mark the start of treatment (day 0) and horizontal red line marks 250 mm^3. Solid lines represent individual tumors and mice. Images in panel (A) and (B) were created using BioRender. ** P<0.01.
(D-G) The MMTV-PyMT mice in (B) were evaluated for evidence of toxicity, including weight change from treatment initiation (D), end of treatment (day 21) plasma ratio of AST:ALT enzymes (E), blood circulating immune cells assessed using flow cytometry (F) and pathology assessment of inflammatory cell infiltrate in the lungs alongside an additional cohort or WT non-tumor bearing mice given dual treatment for 21 days and then assessed at treatment cessation or 30 days after treatment cessation (G). Image in panel (A) was created using BioRender. Bar charts show the mean, error bars SD, and the dots show individual data points from individual tumors and mice. Line charts display the mean and SEM. Gemc.; gemcitabine. * P<0.05, ** P<0.01.
MN-MCA1 sarcoma cells were orthotopically implanted into syngeneic C57Bl/6 mice for tumors. A total of 2.5 x 10^5 cells in 100 μL RPMI were injected subcutaneously into female mice. In MMTV-PyMT mice, tumors arose spontaneously. When tumors became palpable, volumes were measured every 2-4 days using digital caliper measurements of the long (L) and short (S) dimensions of the tumor. […]

In assay [2] the test system is MMTV-PyMT tumors. In words: Gemcitabine tumor growth in Lyve1^Cre and Lyve1^WT MMTV-PyMT Hmox1^fl/fl mice. The settings on record: gemcitabine 6.6mg/kg/7days. It is filed as in vivo, mouse. An excerpt:
Figure 1 LYVE-1^+ PvTAMs modulate the immune landscape and resistance to chemotherapy in cancer through their expression of HO-1. (A) Representative image of a frozen section of MMTV-PyMT tumor stained with DAPI (nuclei; blue) and antibodies against F4/80 (magenta), HO-1 (red), CD31 (green). Colocalizing pixels for F4/80 and HO-1 are shown in yellow. Scale bar is 50 µm. (B-E) Schematic depicting the transgene of the HO-1 reporter mice (HO-1^Luc/eGFP) (top panel) and representative dot plot of FACs-gated live (7AAD^-) cells from enzyme-dispersed MMTV-PyMT HO-1^Luc/eGFP tumors separated based on their respective expression of HO-1 (eGFP) and CD45 (bottom panel) (B). HO-1/eGFP normalized median fluorescent intensity (MFI) of the indicated tumoral cell populations with background MFI subtracted from WT mice (n=5) (C). Representative contour plot of FACs-gated live (7AAD^-), CD45^+F4/80^+ TAMs separated based on their expression of CD206 and MHCII (left) and histograms showing the HO-1/eGFP expression of the subsets alongside the background fluorescence in WT mice (right) (D). Representative histograms of the TAM populations identified in (D) for their surface expression of LYVE-1 alongside their respective fluorescence minus one (FMO) staining (E). (F) Quantitation of the respective TAM populations identified in (D) across MMTV-PyMT tumors (n=10). […]

As to “Sn (IV) mesoporphyrin IX dichloride [SnMP]”, the tumor growth entry in the assay on MMTV-PyMT tumors [1] was “did not control tumor growth”.

On to `Nc1ccn([C@@H]2O[C@H](CO)[C@@H](O)C2(F)F)c(=O)n1` [gemcitabine], for which the tumor growth result was “long-term durable control of tumor growth” in the assay with MMTV-PyMT tumors [2] (Lyve1^Cre mice) and “insensitive” in the assay with MMTV-PyMT tumors [2] (Lyve1^WT mice).
